Measured values taken from patent publication US6133292A, “Diaryl-5-alkyl-5-methyl-2-(5H)-furanones as selective cyclooxygenase-2-inhibitors” (Merck Frosst Canada & Co., priority 1998, dated 2000).

Experiments:
[1] = Pharmacokinetics in rats (half-life); type: in vivo, rat (male Sprague Dawley); conditions: rat, blood, read-out: T 1/2 in Rats (converted)
From the text: Per Os Pharmacokinetics in Rats--Procedure:
The animals are housed, fed and cared for according to the Guidelines of the Canadian Council on Animal Care. Male Sprague Dawley rats (325-375 g) are fasted overnight prior to each PO blood level study. The rats are placed in the restrainer one at a time and the box firmly secured. The zero blood sample is obtained by nicking a small (1 mm or less) piece off the tip of the tail. The tail is then stroked with a firm but gentle motion from the top to the bottom to milk out the blood. Approximately 1 mL of blood is collected into a heparirnized vacutainer tube.
Compounds are prepared as required, in a standard dosing volume of 10 mL/kg, and administered orally by passing a 16 gauge, 3" gavaging needle into the stomach. Subsequent bleeds are taken in the same manner as the zero bleed except that there is no need to nick the tail again. The tail is cleaned with a piece of gauze and milked/stroked as described above into the appropriately labelled tubes.
Immediately after sampling, blood is centrifuged, separated, put into clearly marked vials and stored in a freezer until analysed. Typical time points for determination of rat blood levels after PO dosing are 0, 15 min, 30 min, 1 h, 2 h, 4 h, and 6 h.
After the 4 hr time point bleed, food is provided to the rats ad libitum. Water is provided at all times during the study.
The following vehicles may be used in PO rat blood level determinations:
Compounds for PO blood levels can be in suspension form. For better dissolution, the solution can be placed in a sonicator for approximately 5 minutes.
For analysis, aliquots are diluted with an equal volume of acetonitrile and centrifuged to remove protein precipitate. The supernatant is injected directly onto a C-18 HPLC column with UV detection. Quantitation is done relative to a clean blood sample spiked with a known quantity of drug.
Intravenous Pharmacokinetics in Rats--Procedure
The animals are housed, fed and cared for according to the Guidelines of the Canadian Council on Animal Care. Male Sprague Dawley (325-375 g) rats are placed in plastic shoe box cages with a suspended floor, cage top, water bottle and food. The compound is prepared as required, in a standard dosing volume of 1 mL/kg.
Rats are bled for the zero blood sample and dosed under CO2 sedation. The rats, one at a time, are placed in a primed CO2 chamber and taken out as soon as they have lost their righting reflex. The rat is then placed on a restraining board, a nose cone with CO2 delivery is placed over the muzzle and the rat restrained to the board with elastics. With the use of forceps and scissors, the jugular vein is exposed and the zero sample taken, followed by a measured dose of compound which is injected into the jugular vein. Light digital pressure is applied to the injection site, and the nose cone is removed. The time is noted. This constitutes the zero time point.
The 5 min bleed is taken by nicking a piece (1-2 mm) off the tip of the tail. The tail is then stroked with a firm but gentle motion from the top of the tail to the bottom to milk the blood out of the tail. Approximately 1 mL of blood is collected into a heparinized collection vial. Subsequent bleeds are taken in the same fashion, except that there is no need to nick the tail again. The tail is cleaned with a piece of gauze and bled, as described above, into the appropriate labelled tubes. Typical time points for determination of rat blood levels after I.V. dosing are either a) 0, 5 min, 15 min, 30 min, 1 h, 2 h, 6 h, or b) 0, 5 min, 30 min, 1 h, 2 h, 4 h, 6 h.
The following vehicles may be used in IV rat blood level determinations:
DMSO (dimethylsulfoxide): Restricted to a dose volume of 0.1 mL per animal
PEG 200: Not more than 60% mixed with 40% sterile water --1 mL/kg
With Dextrose, either sodium bicarbonate or sodium carbonate can be added if the solution is cloudy. […]

COX-1 [2] = target: T1, COX-1 (Homo sapiens, UniProt P23219); test: Human whole blood assay, COX-1 (clotting-induced TxB2 production); type: cell-based; design: platelets in whole blood contain a large amount of the COX-1 enzyme; from tissue; host or cells: fresh human whole blood without anticoagulant, platelets; conditions: clotting-induced TxB2, 1 hour at 37° C, read-out: HWB Cox-1 (IC50)
T1 sequence (P23219 24-599): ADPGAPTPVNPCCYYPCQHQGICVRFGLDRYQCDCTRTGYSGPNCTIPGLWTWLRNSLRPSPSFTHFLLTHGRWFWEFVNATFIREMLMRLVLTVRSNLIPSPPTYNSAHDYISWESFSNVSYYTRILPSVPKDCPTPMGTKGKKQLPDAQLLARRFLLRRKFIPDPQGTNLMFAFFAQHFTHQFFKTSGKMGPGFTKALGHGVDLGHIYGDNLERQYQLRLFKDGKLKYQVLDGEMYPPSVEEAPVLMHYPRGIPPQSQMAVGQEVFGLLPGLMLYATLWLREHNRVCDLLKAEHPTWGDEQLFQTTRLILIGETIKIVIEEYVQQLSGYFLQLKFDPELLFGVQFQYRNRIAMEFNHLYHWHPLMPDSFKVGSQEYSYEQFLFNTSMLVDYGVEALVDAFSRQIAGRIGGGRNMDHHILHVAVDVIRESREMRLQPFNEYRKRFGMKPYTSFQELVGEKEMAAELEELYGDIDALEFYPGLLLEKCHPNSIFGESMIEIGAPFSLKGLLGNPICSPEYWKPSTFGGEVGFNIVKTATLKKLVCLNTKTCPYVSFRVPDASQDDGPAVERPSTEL
Description: (§1) Human whole blood provides a protein and cell-rich milieu appropriate for the study of biochemical efficacy of anti-inflammatory compounds such as selective COX-2 inhibitors. […] This is consistent with the observation that COX-2 inhibitors have no effect on PGE2 production in normal blood. These inhibitors are active only after incubation of human whole blood with LPS, which induces COX-2. This assay can be used to evaluate the inhibitory effect of selective COX-2 inhibitors on PGE2 production. As well, platelets in whole blood contain a large amount of the COX-1 enzyme. Immediately following blood clotting, platelets are activated through a thrombin-mediated mechanism. This reaction results in the production of thromboxane B2 (TXB2) via activation of COX-1. Thus, the effect of test compounds on TxB2 levels following blood clotting can be examined and used as an index for COX-1 activity. Therefore, the degree of selectivity by the test compound can be determined by measuring the levels of PGE2 after LPS induction (COX-2) and TxB2 following blood clotting (COX-1) in the same assay.
B. COX-1 (Clotting-induced TxB2 production)
Fresh blood is collected into vacutainers containing no anticoagulants. […] The tubes are vortexed and incubated at 37° C. for 1 hour to allow blood to clot. At the end of incubation, serum is obtained by centrifugation (12,000 x g for 5 min.). A 100 μL aliquot of serum is mixed with 400 μL of methanol for protein precipitation. The supernatant is obtained and is assayed for TxB2 using a enzyme immunoassay kit (Cayman, #519031) according to the manufacturer's instruction. […]

COX-1 [3] = target: T1, COX-1; test: Assay of COX-1 activity from U937 cell microsomes; type: biochemical; design: Assay of COX-1 Activity from U937 cell microsomes; endogenous in cells; host or cells: U937 cells, 100,000 x g microsomal fraction; conditions: read-out: U937 Cox-1 (IC50, inhibition of PGE2 production)
Description: Assay of COX-1 Activity from U937 cell microsomes
U 937 cells are pelleted by centrifugation at 500 x g for 5 min and washed once with phosphate-buffered saline and repelleted. Cells are resuspended in homogenization buffer consisting of 0.1 M Tris-HCl, pH 7.4, 10 mM EDTA, 2 μg/ml leupeptin, 2 μg/ml soybean trypsin inhibitor, 2 μg/ml aprotinin and 1 mM phenyl methyl sulfonyl fluoride. The cell suspension is sonicated 4 times for 10 sec and is centrifuged at 10,000 x g for 10 min at 4° C. The supernatant is centrifuged at 100,000 x g for 1 hr at 4° C. The 100,000 x g microsomal pellet is resuspended in 0.1 M Tris-HCl, pH 7.4, 10 mM EDTA to approximately 7 mg protein/mil and stored at -80° C.
Microsomal preparations are thawed immediately prior to use, subjected to a brief sonication, and then diluted to a protein concentration of 125 μg/ml in 0.1 M Tris-HCl buffer, pH 7.4 containing 10 mM EDTA, 0.5 mM phenol, 1 mM reduced glutathione and 1 μM hematin. Assays are performed in duplicate in a final volume of 250 μl. Initially, 5 μl of DMSO vehicle or drug in DMSO are added to 20 μl of 0.1 M Tris-HCl buffer, pH 7.4 containing 10 mM EDTA in wells of a 96-deepwell polypropylene titre plate. 200 μl of the microsomal preparation are then added and pre-incubated for 15 min at room temperature before addition of 25 μl of […] arachidonic acid in […] Tris-HCl and 10 mM EDTA, pH 7.4. Samples are incubated for 40 min at room temperature and the reaction is stopped by the addition of 25 μl of 1 N HCl. Samples are neutralized with 25 μl of 1 N NaOH prior to quantitation of PGE2 content by radioimmunoassay (Dupont-NEN or Amersham assay kits). Cyclooxygenase activity is defined as the difference between PGE2 levels in samples incubated in the presence of arachidonic acid and ethanol vehicle.
(§2) Compounds of the present invention are inhibitors of COX-2 and are thereby useful in the treatment of COX-2 mediated diseases as enumerated above. The activities of the compounds against cyclooxygenase may be seen in the representative results shown below. In the assay, inhibition is determined by measuring the amount of prostaglandin E2 (PGE2) synthesized in the presence of arachidonic acid, COX-1 or COX-2 and a putative inhibitor. The IC50 values represent the concentration of putative inhibitor required to lower PGE2 synthesis to 50% of that obtained as compared to the uninhibited control.

COX-2 = target: T2, COX-2 (Homo sapiens, UniProt P35354); test: Human whole blood assay, COX-2 (LPS-induced PGE2 production); type: cell-based; design: incubation of human whole blood with LPS, which induces COX-2; from tissue; host or cells: fresh heparinized human whole blood from male and female volunteers, LPS-stimulated; conditions: 24 hours at 37° C, read-out: HWB Cox-2 (IC50, inhibition of PGE2 production)
T2 sequence (P35354 18-604): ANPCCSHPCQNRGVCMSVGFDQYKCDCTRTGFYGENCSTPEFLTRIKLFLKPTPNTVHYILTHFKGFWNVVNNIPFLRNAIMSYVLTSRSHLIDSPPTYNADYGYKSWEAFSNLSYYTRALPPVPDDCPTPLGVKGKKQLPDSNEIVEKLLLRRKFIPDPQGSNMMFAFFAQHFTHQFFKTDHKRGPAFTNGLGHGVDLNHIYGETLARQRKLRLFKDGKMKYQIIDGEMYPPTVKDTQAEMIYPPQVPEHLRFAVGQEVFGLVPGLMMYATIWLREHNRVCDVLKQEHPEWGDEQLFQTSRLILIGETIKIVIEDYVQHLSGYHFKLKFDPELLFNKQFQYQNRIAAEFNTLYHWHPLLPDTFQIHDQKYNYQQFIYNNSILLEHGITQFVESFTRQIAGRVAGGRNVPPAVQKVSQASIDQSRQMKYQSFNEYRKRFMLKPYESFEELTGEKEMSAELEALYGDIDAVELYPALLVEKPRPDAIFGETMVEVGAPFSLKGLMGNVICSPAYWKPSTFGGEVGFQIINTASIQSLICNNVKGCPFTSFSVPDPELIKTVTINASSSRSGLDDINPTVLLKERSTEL
Description: as §1
A. COX-2 (LPS-induced PGE9 production)
Fresh blood is collected in heparinized tubes by venipuncture from both male and female volunteers. The subjects have no apparent inflammatory conditions and have not taken any NSAIDs for at least 7 days prior to blood collection. Plasma is immediately obtained from a 2 mL blood aliquot to use as blank (basal levels of PGE2). The remaining blood is incubated with LPS (100 μg/ml final concentration, Sigma Chem, #L-2630 from E. coli; diluted in 0.1% BSA (Phosphate buffered saline) for 5 minutes at room temperature. Five hundred μL aliquots of blood are incubated with either 2 μL of vehicle (DMSO) or 2 μL of a test compound at final concentrations varying from 10 nM to 30 μM for 24 hours at 37° C. At the end of the incubation, the blood is centrifuged at 12,000 x g for 5 minutes to obtain plasma. A 100 μL aliquot of plasma is mixed with 400 μL of methanol for protein precipitation. The supernatant is obtained and is assayed for PGE2 using a radioimmunoassay kit (Amersham, RPA#530) after conversion of PGE2 to its methyl oximate derivative according to the manufacturer's procedure.
as §2

Row | SMILES | half-life [1] [h] | IC50 (COX-1 [2]) [µM] | IC50 (COX-1 [3]) [µM] | IC50 (COX-2) [µM]
1 | CC1(C)OC(=O)C(c2ccc(F)c(F)c2)=C1c1ccc(S(C)(=O)=O)cc1 [Compound T3-2, 3-(3,4-difluorophenyl)-5,5-dimethyl-4-[4-(methylsulfonyl)phenyl]-2,5-dihydro-2-furanone, reference compound] | > 24 | > 30 | 10 to 30 | –
2 | CCC1(C)OC(=O)C(c2ccccc2)=C1c1ccc(S(C)(=O)=O)cc1 (stereo not drawn) [a, 5-ethyl-5-methyl-4-[4-(methylsulfonyl)phenyl]-3-phenyl-2,5-dihydro-2-furanone] | – | > 30 | 3 to 10 | < 0.37
3 | CCC1(C)OC(=O)C(c2cccc(F)c2)=C1c1ccc(S(C)(=O)=O)cc1 (stereo not drawn) [f, 5-ethyl-3-(3-fluorophenyl)-5-methyl-4-[4-(methylsulfonyl)phenyl]-2,5-dihydro-2-furanone] | – | > 30 | > 10 | 0.48
